In patent publication US10183047B2, “Chromium-containing compositions in combination with Phyllanthus emblica and shilajit having synergistic effects for improving endothelial function and cardiovascular health” (Natreon, Inc., priority 2014, dated 2019):

Key:
Assay type in all cases: in vivo, human
[1] = system: high sensitivity C-reactive protein (hsCRP); assay: hsCRP by ELISA, type 2 diabetics; settings: for hsCRP: DM, 400 mcg; for Mean percentage change in hsCRP / hsCRP Post Tt / hsCRP Pre Tt: type 2 diabetics (Example 3), chromium products 400 mcg; for Mean percentage change in hsCRP: 12 week treatment; for hsCRP Post Tt: post-treatment, 12 weeks; for hsCRP Pre Tt: pre-treatment
Description: The present clinical study is a prospective, randomized, double blind, placebo-controlled study. Patients of either sex, aged 30-65 years, fasting plasma glucose of 110-126 mg/dl, a glycosylated hemoglobin (HbA1c) between 6.5% and 8% and taking stable dose of anti-diabetic treatment (metformin 1500-2000 mg/day) for the past 8 weeks prior to the screening visit; and having endothelial dysfunction defined as ≤6% change in reflection index (RI) on post salbutamol challenge test were included in the study. Patients with severe uncontrolled hyperglyceamia, uncontrolled hypertension, cardiac arrhythmia, impaired hepatic or renal function, history of malignancy or stroke, smoking, chronic alcoholism, any other serious disease requiring active treatment and treatment with any other herbal supplements, were excluded from the study.
After screening, all the eligible subjects were randomized to receive either one of the three treatments orally for duration of 12 weeks—Group1—one capsule of Crominex®3+, 200 mcg once daily, Group 2—one capsule Crominex®3+, 400 mcg once daily; Group 3—one capsule of placebo once daily.
Subjects were required for follow up at 4, 8 and 12 weeks of therapy. At each visit they were evaluated for efficacy and safety. Pharmacodynamic evaluation for endothelial function was conducted at every visit. Blood samples were collected for evaluation of biomarkers before and at the end of treatment. Safety lab investigations for hematological, hepatic and renal biochemical parameters were conducted before and at the end of the study and also as and when required (in case of any adverse drug reaction (ADR). Subjects were enquired for the presence of ADR and the same was recorded in the case report form. Compliance to therapy was assessed by pill count method.
(§1) Nitric oxide, MDA, Glutathione and levels were estimated spectrophotometrically as follows. Malondialdehyde (MDA) levels were determined as described in Vidyasagar, et al., “Oxidative stress and antioxidant status in acute organophosphorous insecticide poisoning,” Indian J. Pharmacol. (April 2004) 36(2): 76-79. Glutathione levels were determined as described in G. L. Ellman, Arch. Biochem. Biophys. (1959) 82: 70-77 (original determination). Nitric oxide levels were estimated spectrophotometrically as described in Miranda, et al., “A Rapid, Simple Spectrophotometric Method for Simultaneous Detection of Nitrate and Nitrite,” NITRIC OXIDE: Biology and Chemistry (2001) Vol. 5, No. 1, pp. 62-71. hsCRP (high sensitivity C-reactive protein) was determined by ELISA method.
(§2) When the results with Crominex® 3+ in the above two examples were highly significant, especially with the 400 mcg once daily dose in type 2 diabetics, two more clinical studies (EXAMPLES 3 & 4) were conducted at the same institute, following the same methodology as described earlier, on the individual components of Crominex® 3+, i.e., chromium chloride and Phyllanthus emblica+Shilajit, and other chromium supplements available in the market, i.e., chromium picolinate, chromium polynicotinate and chromium dinicocysteinate, in type 2 diabetics as well as in subjects with metabolic syndrome symptoms.

[2] = Blood pressure, type 2 diabetics; settings: type 2 diabetics (Example 3), chromium products 400 mcg; for Diastolic blood pressure Post Tt / Systolic blood pressure Post Tt: post-treatment, 12 weeks; for Diastolic blood pressure Pre Tt / Systolic blood pressure Pre Tt: pre-treatment
Description: as §2

[3] = system: high sensitivity C-reactive protein (hsCRP); assay: hsCRP by ELISA, metabolic syndrome subjects; parameters: hsCRP Pre Tt / hsCRP Post Tt: unit not given here; settings: for hsCRP: MS, 400 mcg; for Mean percentage change in hsCRP: after 12 weeks treatment
Description: as §1
(§3) Patients included in the study, were of either gender, aged 30-68 years, having endothelial dysfunction defined as ≤6% change in reflection index (RI) on post salbutamol challenge test and central obesity as defined by The International Diabetes Federation guidelines, dated 2006, and any two of the following conditions: […]
(§4) Subjects were reviewed for follow up at 4 weeks, 8 and 12 weeks of therapy. At each visit they were evaluated for efficacy and safety. Pharmacodynamic evaluation for endothelial function was conducted at baseline and end of treatment. Blood samples were collected for evaluation of biomarkers before and at end of treatment. Safety lab investigations for hematological, hepatic and renal biochemical parameters were conducted before and at the end of the study and also as and when required (in case of any adverse drug reaction (ADR)). Subjects were enquired for the presence of ADR and the same was recorded in the case report form. Compliance to therapy was assessed by pill count method.
(§5) Assessment of endothelial function, biomarkers, safety parameters and primary and secondary efficacy parameters and data analysis were performed as described under the study with type 2 diabetic subjects in Example 1.
as §2

[4] = system: lipid profile; assay: Lipid profile (TC, HDL-C, LDL-C, TG), metabolic syndrome subjects; settings: for HDL / LDL / TC / TG: MS; for HDL-C Post Tt / LDL-C Post Tt / Mean percentage change in HDL-C / Mean percentage change in Total Cholesterol / Mean percentage change in Triglycerides / Total Cholesterol Post Tt / Triglycerides Post Tt / HDL-C Pre Tt / LDL-C Pre Tt / Total Cholesterol Pre Tt / Triglycerides Pre Tt: metabolic syndrome subjects (Example 4), chromium products 400 mcg; for HDL-C Post Tt / LDL-C Post Tt / Mean percentage change in HDL-C / Mean percentage change in Total Cholesterol / Mean percentage change in Triglycerides / Total Cholesterol Post Tt / Triglycerides Post Tt: after 12 weeks of treatment; for HDL-C Pre Tt / LDL-C Pre Tt / Total Cholesterol Pre Tt / Triglycerides Pre Tt: pre-treatment
Excerpt: All the subjects had undergone complete physical examination, safety lab evaluations at baseline and at the end of the treatment. Samples were collected after an overnight fast of 12 hrs after the last dose of medication for determination of hemoglobin, glycosylated hemoglobin (HbA1c), blood urea, serum creatinine, liver function, lipid profile (Total cholesterol, High density lipoprotein cholesterol (HDL-C), low density lipoprotein cholesterol (LDL-C) using appropriate standard techniques.
as §3, §4, §5, §2

[5] = Blood pressure, metabolic syndrome subjects; settings: metabolic syndrome subjects (Example 4), chromium products 400 mcg; for Diastolic blood pressure Post Tt / Systolic blood pressure Post Tt: after 12 weeks of treatment; for Diastolic blood pressure Pre Tt / Systolic blood pressure Pre Tt: pre-treatment
Excerpt: (§6) Patients included in the study, were of either gender, aged 30-68 years, having endothelial dysfunction defined as ≤6% change in reflection index (RI) on post salbutamol challenge test and central obesity as defined by The International Diabetes Federation guidelines, dated 2006, and any two of the following conditions:
(§7) After screening, all the eligible subjects were randomized to receive either one of the three treatments orally for duration of 12 weeks: group 1—one capsule of Crominex®3+ 200 mcg once daily; group 2—one capsule 400 mcg once daily; group 3—one capsule of Placebo once daily.
as §4, §2

[6] = system: fasting plasma glucose; assay: Fasting plasma glucose, metabolic syndrome subjects; settings: for Fasting Glucose: MS, 400 mcg; for Fasting Plasma Glucose Post Tt / Fasting Plasma Glucose Pre Tt: metabolic syndrome subjects (Example 4), chromium products 400 mcg; for Fasting Plasma Glucose Post Tt: after 12 weeks of treatment; for Fasting Plasma Glucose Pre Tt: pre-treatment
Excerpt: as §6, §7, §4, §2

[7] = metabolic syndrome subjects (Example 4), chromium products 400 mcg

Row | Molecule | hsCRP [1] [%] | Mean percentage change in hsCRP [1] | hsCRP Post Tt [1] [mg/L] | hsCRP Pre Tt [1] [mg/L] | Diastolic blood pressure Post Tt [2] [NS mmHg] | Systolic blood pressure Post Tt [2] [NS mmHg] | Diastolic blood pressure Pre Tt [2] [mmHg] | Systolic blood pressure Pre Tt [2] [mmHg] | hsCRP [3] [%] | Mean percentage change in hsCRP [3, 7] [%] | HDL ([4]; 400 mcg) [%] | LDL ([4]; 400 mcg) [%] | TC ([4]; 400 mcg) [%] | TG ([4]; 400 mcg) [%] | HDL-C Post Tt [4] [NS mg/dl] | LDL-C Post Tt [4] | Mean percentage change in HDL-C [4] [%] | Mean percentage change in Total Cholesterol [4] [%] | Mean percentage change in Triglycerides [4] [%] | Total Cholesterol Post Tt [4] | also measured
1 | O.O.O.O.O.O.[Cl][Cr]([Cl])[Cl] [Chromium chloride, Chromium chloride (CrCl3.6H2O)] | −9.92 | −9.92 ± 3.86 #$NS % | 2.46 ± 0.55 | 2.72 ± 0.53 | 77.16 ± 1.68 | 117.26 ± 1.52 | 77.05 ± 1.68 | 117.37 ± 2.50 | −11 | −10.99 ± 3.29 | −1.08 | 0.79 | 0.49 | 0.92 | 36.79 ± 5.14 | 117.37 ± 9.13 NS mg/dl | −1.08 ± 3.45 | 0.49 ± 1.30 | 0.92 ± 1.43 | 189.21 ± 10.80 NS mg/dl | Triglycerides Post Tt [4]: 175.26 ± 9.70 mg/dL; HDL-C Pre Tt [4]: 37.21 ± 5.16 mg/dL; LDL-C Pre Tt [4]: 116.42 ± 9.75 mg/dL; Total Cholesterol Pre Tt [4]: 188.37 ± 11.78 mg/dL; Triglycerides Pre Tt [4]: 173.68 ± 9.70 mg/dL; Diastolic blood pressure Post Tt [5]: 79.8 ± 2.66 NS mmHg; Systolic blood pressure Post Tt [5]: 122.9 ± 3.42 NS mmHg; Diastolic blood pressure Pre Tt [5]: 80.6 ± 2.67 mmHg; Systolic blood pressure Pre Tt [5]: 124.7 ± 3.35 mmHg; Fasting Glucose [6]: −2.7%; Fasting Plasma Glucose Post Tt [6]: 101.32 ± 16.51 NS; Fasting Plasma Glucose Pre Tt [6]: 104.16 ± 14.92
2 | chromium polynicotinate | −11.45 | −11.45 ± 12.28 #NS % | 2.43 ± 0.49 | 2.75 ± 0.47 | 79.7 ± 2.85 | 124.1 ± 4.88 | 81.2 ± 3.07 | 125.9 ± 5.17 | −12.34 | −12.34 ± 2.16 | −1.55 | 1.86 | 0.95 | 0.83 | 36.20 ± 5.15 | 111.95 ± 12.95 mg/dL | −1.55 ± 4.17 | 0.95 ± 1.33 | 0.83 ± 1.22 | 182.75 ± 14.03 mg/dL | hsCRP Post Tt ([3]; metabolic syndrome subjects (Example 4), chromium products 400 mcg, after 12 weeks of treatment): 2.42 ± 0.54; hsCRP Pre Tt ([3]; metabolic syndrome subjects (Example 4), chromium products 400 mcg, pre-treatment): 2.76 ± 0.58; LDL-C, mean percentage change ([4]; mean percentage change after 12 weeks of treatment, 400 mcg, Example 4): 1.86%; Triglycerides Post Tt [4]: 173.00 ± 9.33 mg/dL; HDL-C Pre Tt [4]: 36.85 ± 5.48 mg/dL; LDL-C Pre Tt [4]: 109.88 ± 12.76 mg/dL; Total Cholesterol Pre Tt [4]: 181.05 ± 13.98 mg/dL; Triglycerides Pre Tt [4]: 171.60 ± 9.43 mg/dL; Diastolic blood pressure Post Tt [5]: 79.7 ± 2.85 NS mmHg; Systolic blood pressure Post Tt [5]: 124.1 ± 4.88 NS mmHg; Diastolic blood pressure Pre Tt [5]: 81.2 ± 3.07 mmHg; Systolic blood pressure Pre Tt [5]: 125.9 ± 5.17 mmHg; Fasting Glucose [6]: −4.14%; Fasting Plasma Glucose Post Tt [6]: 95.95 ± 13.32 NS; Fasting Plasma Glucose Pre Tt [6]: 100.10 ± 14.00
